One data set has as its system fibrosarcoma HT1080. Put plainly: Xenograft model in nude mice, fibrosarcoma HT1080. The class given is in vivo, human. Particulars: reference compound. Here is the method: (§1) The compounds of the invention were evaluated in human tumor xenograft mouse models. Nude mice were subcutaneously implanted with tumor cells (melanoma A2058, colon carcinoma HCT116, fibrosarcoma HT1080 and acute myelocytic leukemia MV114) and when the tumor reached a volume of about 100-150 mm^3, treatment was initiated. Tumor growth was followed over time until tumor volume reached 1000-1500 mm^3 or up to 60 days. An example of how tumor developed over time when the animals were administered or not with E3 three times once a week (qwk×3) is presented in FIG. 7. […]
(Xenograft models place foreign cells or tissue in a host animal.)

A further data set concerns Jurkat cells. Put plainly: Jurkat cell viability, resazurin (Alamar Blue) assay. The data set is classed as cell-based. The conditions noted are these: Homo sapiens. Here is the method: The compounds were tested for pharmacological activity. In each of the tests, each compound was tested at […] in duplicates. […] The percentage of response relative to the DMSO control was then calculated for the mean value of the duplicates of each test. The values of the three tests were finally averaged and the standard deviations calculated.
Jurkat cells (10'000 cells/well) were incubated in the presence of various concentrations of compounds, doxorubicin or staurosporine. Twenty-two hours later, cells were incubated with resazurin (20 μg/ml) for 4 hours and fluorescence was measured at 590 nm.
(Resazurin is reduced to fluorescent resorufin, in cell work by metabolically active cells.)

In a further data set the target is purified porcine tubulin (Sus scrofa, UniProt P02550+P02554). Put plainly: Inhibition of 3H-labeled colchicine binding to purified tubulin, scintillation proximity assay. Particulars: graded doses. As to the method: A series of compounds according to the invention and C14 vincristine and colchicine were tested for their capacity to inhibit ^3H-labeled colchicine binding to purified tubulin. Briefly, a limiting amount of tritium-labeled colchicine and graded doses of test compounds were added to purified porcine tubulin. After an incubation period, radioactivity associated with tubulin was determined using a scintillation proximity assay. […] By showing that these compounds interact with the colchicine binding site, it differentiates them from the tubulin inhibitors of the Vinca alkaloid- and taxane-types. The results also indicate that the compounds of the invention can be used in combination with the Vinca alkaloid- and taxane-types of tubulin inhibitors since they bind to a different aspect of tubulin, and likely affect tubulin polymerization via a different mechanism. The results also indicate that the compounds of the invention can be used even in patients who are refractory or non-responsive to other tubulin inhibitors, such as the tubulin inhibitors of the Vinca alkaloid- and taxane-types.
(Scintillation proximity formats need no separation of bound from free tracer.)

The test system of a further data set is caspase 3 and 7. The data set can be described thus: Apoptosis induction in Jurkat cells, caspase 3 and 7 assay. The data set is classed as cell-based. The conditions noted are these: for IC50: Homo sapiens, Jurkat cells, caspase 3/7 assay. As to the method: Compounds were assessed for their ability to induce apoptosis of Jurkat cells at 2 and 10 micromolar after 4 and 22 hours.
In order to firmly establish that the compounds of the invention cause cytotoxicity through apoptosis, IC50 of five compounds of the invention, doxorubicin and staurosporin were determined in the caspase assays; results are presented in Table 2. Importantly, the IC50 determined in the Alamar Blue and in the caspase assays were largely overlapping.

The nature of data set [1]: Solubilization in intravenous formulation. The data set is classed as physicochemical. Particulars: 5% Cremophor and 5% ethanol in water. From the text:
This formulation was then used for the subsequent animal studies (maximal tolerated dose, pharmacokinetics and efficacy in cancer models).

The nature of data set [2]: Pharmacokinetics after intravenous injection, plasma concentration. The conditions noted are these: mice, intravenous, after four hours. The class given is in vivo. Here is the method: The pharmacokinetics of E3 and E35 were investigated. Mice intravenously injected with 15 mg/kg of E3 were bled after 0, 1, 5, 10, 20, 30, 60, 120 and 480 minutes. […] For E35, mice intravenously injected with 30 mg/kg of […] were bled after 0, 1, 5, 10, 20, 30, 60, 120 and 480 minutes. […] Concentration then decreased steadily over the 8 hours of the study. During the first four hours after injection, circulating concentrations of E3 and E35 were found largely similar.

The next data set relates to colon carcinoma HCT116. The data set can be described thus: Xenograft model in nude mice, colon carcinoma HCT116. The conditions noted are these: reference compound. The data set is classed as in vivo, human. Here is the method: as §1
Where [3] appears, read: Jurkat cells, 22 h then resazurin 4 h, three experiments in duplicates, read-out: IC50.
The mark [4] stands for this setting: Jurkat, control compounds of the tests, read-out: IC50 of control agents included in each test.

The source of these data is patent publication US20130274258A1, “CARBAZOLE AND CARBOLINE DERIVATIVES, AND PREPARATION AND THERAPEUTIC APPLICATIONS THEREOF” (PHILIP MORRIS PRODUCTS S.A., priority 2010, published 2013).

Where two headings read alike, the source gives them in different places.

What is called IC50 is the concentration at which inhibition is half-maximal.

Chain of purified porcine tubulin (P02554 whole entry): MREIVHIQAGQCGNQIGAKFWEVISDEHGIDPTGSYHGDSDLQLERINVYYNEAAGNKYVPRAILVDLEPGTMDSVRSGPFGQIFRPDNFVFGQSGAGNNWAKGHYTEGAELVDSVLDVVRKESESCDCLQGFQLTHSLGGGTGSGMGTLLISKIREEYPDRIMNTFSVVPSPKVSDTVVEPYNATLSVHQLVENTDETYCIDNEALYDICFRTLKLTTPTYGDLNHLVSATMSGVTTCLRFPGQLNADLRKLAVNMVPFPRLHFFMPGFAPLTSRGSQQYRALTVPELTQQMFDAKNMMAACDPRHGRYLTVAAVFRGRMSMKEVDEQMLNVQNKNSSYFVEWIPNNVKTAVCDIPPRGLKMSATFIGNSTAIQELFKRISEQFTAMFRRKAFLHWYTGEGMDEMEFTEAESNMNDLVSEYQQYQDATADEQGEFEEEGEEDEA
Chain of purified porcine tubulin (P02550 whole entry): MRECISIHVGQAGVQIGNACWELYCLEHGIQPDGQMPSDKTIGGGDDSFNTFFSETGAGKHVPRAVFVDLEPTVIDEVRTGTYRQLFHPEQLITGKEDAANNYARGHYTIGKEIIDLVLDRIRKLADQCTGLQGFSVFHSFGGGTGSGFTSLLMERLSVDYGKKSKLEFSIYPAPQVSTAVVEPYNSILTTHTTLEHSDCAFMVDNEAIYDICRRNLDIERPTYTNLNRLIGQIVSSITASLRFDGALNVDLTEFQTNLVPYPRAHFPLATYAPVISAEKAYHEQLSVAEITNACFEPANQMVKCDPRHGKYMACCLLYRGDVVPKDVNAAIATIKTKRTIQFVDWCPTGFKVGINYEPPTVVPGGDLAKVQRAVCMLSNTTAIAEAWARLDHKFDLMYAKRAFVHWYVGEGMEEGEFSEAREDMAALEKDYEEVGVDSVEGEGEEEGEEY

`CC(=O)O[C@@]12CO[C@@H]1C[C@H](O)[C@@]1(C)C(=O)[C@H](O)C3=C(C)[C@@H](OC(=O)[C@H](O)[C@@H](NC(=O)OC(C)(C)C)c4ccccc4)C[C@@](O)([C@@H](OC(=O)c4ccccc4)[C@H]21)C3(C)C` [Docetaxel, reference compound]: in the data set with fibrosarcoma HT1080, the “Control with reference compound and days to study endpoint” value is on record as “not reached by day 58 days”.
`COc1cc(-c2ccc3[nH]c4c(C)nccc4c3c2)cc(OC)c1OC` [Example C14]: in the data set with Jurkat cells (setting [3]), the IC50 was more than 10000 nM. The “inhibition of 3H-labeled colchicine binding to tubulin” value (from here on “inhibition”) on purified porcine tubulin is reported as “did not inhibit colchicine binding”.
On to `Cc1nccc2c1[nH]c1ccc(-c3ccccc3)cc12` [Example E1, 6-phenyl-1-methyl-9H-pyrido[3,4-b]indole], for which the IC50 with Jurkat cells (setting [3]) came to 413 nM. For the same compound, the “caspase 3 and 7 activity compared to solvent control (%)” value (shortened to “caspase 3 and 7 activity … (%)”) with caspase 3 and 7 (2 μM after 4 h) is reported as −8.5%; in the data set on caspase 3 and 7 (2 μM after 22 h) it was 618.5%; in the data set on caspase 3 and 7 (10 μM after 4 h), −10.0%; with caspase 3 and 7 (10 μM after 22 h), 535.9%.
Take `Cc1nccc2c1[nH]c1ccc(-c3cccc(Cl)c3)cc12` [Example E2, 6-(3-chlorophenyl)-1-methyl-9H-pyrido[3,4-b]indole]: the IC50 in the data set with Jurkat cells (setting [3]) amounted to 104 nM; in the data set on caspase 3 and 7 it was 0.108 µM.
`Cc1nccc2c1[nH]c1ccc(-c3cccc(C(F)(F)F)c3)cc12` [Example E6, 6-(3-(trifluoromethyl)phenyl)-1-methyl-9H-pyrido[3,4-b]indole]: the IC50 with Jurkat cells (setting [3]) came out at 1260 nM. The “caspase 3 and 7 activity … (%)” value in the data set with caspase 3 and 7 (2 μM after 4 h) came out at 9.2%; in the data set with caspase 3 and 7 (2 μM after 22 h), 482.6%; with caspase 3 and 7 (10 μM after 4 h), 11.2%; in the data set with caspase 3 and 7 (10 μM after 22 h) it was 585.1%.
For the compound `CCOc1ccc(F)c(-c2ccc3[nH]c4c(C)nccc4c3c2)c1` [Example E7, 6-(5-ethoxy-2-fluorophenyl)-1-methyl-9H-pyrido[3,4-b]indole], in the data set with Jurkat cells (setting [3]), the IC50 came out at 775 nM. In addition, the “caspase 3 and 7 activity … (%)” value was −7.6% in the data set on caspase 3 and 7 (2 μM after 4 h); 616.1% with caspase 3 and 7 (2 μM after 22 h); −10.2% in the data set on caspase 3 and 7 (10 μM after 4 h); 548.1% in the data set on caspase 3 and 7 (10 μM after 22 h).
For the compound `COc1cccc(-c2ccc3[nH]c4c(C)nccc4c3c2)c1` [Example E9, 6-(3-methoxyphenyl)-1-methyl-9H-pyrido[3,4-b]indole], the IC50 with Jurkat cells (setting [3]) worked out at 137 nM; in the data set on caspase 3 and 7, 0.215 µM.
The matching figures for `Cc1nccc2c1[nH]c1ccc(-c3cccc(C#N)c3)cc12` [Example E21, 6-(3-cyanophenyl)-1-methyl-9H-pyrido[3,4-b]indole]: 47 nM and 0.061 µM.
Consider `Cc1nccc2c1[nH]c1ccc(-c3cccnc3)cc12` [Example E25, 6-(pyridine-3-yl)-1-methyl-9H-pyrido[3,4-b]indole], for which the IC50 with Jurkat cells (setting [3]) was 602 nM. The “caspase 3 and 7 activity … (%)” value in the data set with caspase 3 and 7 (2 μM after 4 h) is recorded as −0.6%; in the data set with caspase 3 and 7 (2 μM after 22 h), 624.4%; in the data set with caspase 3 and 7 (10 μM after 4 h), 18.7%; in the data set with caspase 3 and 7 (10 μM after 22 h), 405.7%.
For `Cc1nccc2c1[nH]c1ccc(-c3ccc4c(c3)CCO4)cc12` [Example E29, 6-(2,3-dihydrobenzofuran-5-yl)-1-methyl-9H-pyrido[3,4-b]indole], the IC50 with Jurkat cells (setting [3]) was found to be 64 nM; with caspase 3 and 7, 0.128 µM.
Compound `CCc1nccc2c1[nH]c1ccc(-c3cccc(C(N)=O)c3)cc12` [Example E35, 6-(3-aminocarbonylphenyl)-1-ethyl-9H-pyrido[3,4-b]indole] gave an IC50 in the data set on Jurkat cells (Jurkat) of 4 nM. Moreover, the “inhibition” value at purified porcine tubulin was “inhibited binding of colchicine”. For the same compound, the “suitability of the formulation” value in data set [1] was “adequate”. Besides, the “circulating concentration compared with E3” value in data set [2] is reported as “substantially lower circulating concentration than E3”.
For the compound `CCc1nccc2c1[nH]c1ccc(-c3cccc(NS(C)(=O)=O)c3)cc12` [Example E44, N-(3-(1-ethyl-9H-pyrido[3,4-b]indol-6-yl)phenyl)methanesulfonamide], in the data set with Jurkat cells (Jurkat), the IC50 came out at 90 nM. The “inhibition” value at purified porcine tubulin is recorded as “inhibited binding of colchicine”. For the same compound, the “suitability of the formulation” value in data set [1] was “adequate”.
As for `Cc1nccc2c1[nH]c1ccc(-c3cccc(C(=O)NCCO)c3)cc12` [Example E48, N-(2-hydroxyethyl)-3-(1-methyl-9H-pyrido[3,4-b]indol-6-yl)benzamide], in the data set with Jurkat cells (setting [3]), the concentration for half-maximal inhibition (IC50) worked out at 627 nM.
Same read-out and setting: to `Cc1nccc2c1[nH]c1ccc(-c3cccc(CNC(=O)N4CCN(C)CC4)c3)cc12` [Example E49] belongs 225 nM.
Take `CCc1nccc2c3cc(-c4cccc(C(N)=O)c4)ccc3n(C)c12` [Example E50, 3-(1-ethyl-9-methyl-9H-pyrido[3,4-b]indol-6-yl)benzamide]: the IC50 in the data set on Jurkat cells (setting [3]) is 16 nM.
Still for that read-out and setting: to `Cc1nccc2c3cc(-c4ccc5c(c4)CCO5)ccc3n(C)c12` [Example E51, 6-(2,3-dihydrobenzofuran-5-yl)-1,9-dimethyl-9H-pyrido[3,4-b]indole] belongs 9 nM; to `CCc1nccc2c1[nH]c1ccc(-c3cccc(NC(C)=O)c3)cc12` [Example E52, N-(3-(1-ethyl-9H-pyrido[3,4-b]indol-6-yl)phenyl)acetamide], 18 nM.
`COc1cncc(-c2ccc3[nH]c4c(C)nccc4c3c2)c1` [Example E53, 6-(5-methoxypyridin-3-yl)-1-methyl-9H-pyrido[3,4-b]indole]: the IC50 with Jurkat cells (setting [3]) came out at 2610 nM.
As to `Cc1nccc2c1[nH]c1ccc(-c3ccc4c(c3)CCCO4)cc12` [Example E54, 6-(chroman-6-yl)-1-methyl-9H-pyrido[3,4-b]indole], in the data set with Jurkat cells (setting [3]), the IC50 was found to be 53 nM.
`Cc1nccc2c1[nH]c1ccc(-c3cccc(-c4ccco4)c3)cc12` [Example E55, 6-(3-(furan-2-yl)phenyl)-1-methyl-9H-pyrido[3,4-b]indole]: the IC50 with Jurkat cells (setting [3]) worked out at 2200 nM.
Same read-out and setting: to `Cc1nccc2c1[nH]c1ccc(-c3cccc(CN4CCOCC4)c3)cc12` [Example E56] belongs 733 nM; to `Cc1nccc2c1[nH]c1ccc(-c3cccc(CN4CCN(C)CC4)c3)cc12` [Example E57, 6-(3-((4-methylpiperazin-1-yl)methyl)phenyl)-1-methyl 9H-pyrido[3,4-b]indole], 200 nM.
Take `Cc1cccc2c1[nH]c1ccc(-c3ccc4c(c3)CCO4)cc12` [Example E58, 6-(2,3-dihydrobenzofuran-5-yl)-1-methyl-9H-carbazole]: in the data set on Jurkat cells (setting [3]), the IC50 was determined as 3750 nM.
With `Cc1nccc2c1[nH]c1ccc(-c3cccc(-n4cccn4)c3)cc12` [Example E59, 6-(3-(1H-pyrazol-1-yl)phenyl)-1-methyl-9H-pyrido[3,4-b]indole], the IC50 in the data set with Jurkat cells (setting [3]) was 913 nM.
With `Cc1c2[nH]c3ccc(-c4cc(Cl)cc(Cl)c4)cc3c2cc[n+]1[O-]` [Example E60, 6-(3,5-dichlorophenyl)-1-methyl-9H-pyrido[3,4-b]indole 2-oxide], the IC50 in the data set with Jurkat cells (setting [3]) was 25 nM.
In the case of `CCc1c2c(nc3ccc(OC(=O)N4CCC(N5CCCCC5)CC4)cc13)-c1cc3c(c(=O)n1C2)COC(=O)[C@]3(O)CC` [Irinotecan, reference compound], in the data set on colon carcinoma HCT116, the “Control with reference compound and days to study endpoint” value is reported as “not reached by day 58 days”.
With `COc1cccc2c1C(=O)c1c(O)c3c(c(O)c1C2=O)C[C@@](O)(C(=O)CO)C[C@@H]3O[C@H]1C[C@H](N)[C@H](O)[C@H](C)O1` [doxorubicin, reference compound], the IC50 in the data set on Jurkat cells (setting [4]) was found to be 85 nM.
The same measure, in the same setting: then `CN[C@@H]1C[C@H]2O[C@@](C)([C@@H]1OC)n1c3ccccc3c3c4c(c5c6ccccc6n2c5c31)C(=O)NC4` [staurosporine, reference compound], with 31 nM.
